Test results reported in US20070037783A1, “Migrastatin analogs and uses thereof” (priority 2003, published 2007).
Like-named read-outs stand apart in the source and are kept apart here. Each block holds one molecule with its values, some of them ahead of it.

Columns and labels:
[1] = tested on: adherent cells (e.g. KYSE-520 cells); experiment: Wound healing (scratch) assay (preliminary, Table 2); format: cell-based; details: 28 to 30 h, compared to 100 μM Migrastatin, tested 200, 100, 50, 25, 10 μM
Protocol: 2. Wound Healing Assay (Table 2)
The wound healing assay was performed based on the method described by Nakae et al. (Nakae et al., J. Antibiotics (2000), 53, 1130-1136). Briefly, adherent cells were grown in a suitable media to confluence (e.g. KYSE-520 cells in RPMI-1640 with 10% FBS). Cells were starved for 24 h in serum free media. A scratch (ca. 0.5 mm) was applied and the cell layer was washed twice with PBS after removal of the media. Fresh, serum free media with the test compound at the desired concentration was added and the cells were incubated for 28 to 30 h at 37° C., 5% CO2. The scratch size was compared to that observed for cells exposed to 100 μM Migrastatin. Test compounds associated with a scratch size equal to or larger than that observed for cells exposed to 100 μM Migrastatin were deemed to have cell migration inhibitory activity at least equal to Migrastatin.

[2] = tested on: 4T1 mouse breast tumor cells; experiment: Boyden chamber cell migration assay with 4T1 tumor cells; format: cell-based; details: for IC50: chamber cell migration, 6-8 h, average of three experiments, read-out: IC50 (4T1 tumor cells)
Protocol: The biological evaluation of the compounds (in terms of their ability to inhibit cell migration) was accomplished in a Boyden chamber cell migration assay. In this assay, mouse breast tumor cells (4T1 cells) or endothelial cells (HUVECs) are seeded on the upper chamber of a transwell insert. Growth factor-containing serum is added to the lower chamber.
Chamber Cell Migration Assay (Tables 4 and 6): Cell migrations were assayed with Boyden chambers [8.0 μm pore size, polyethylene terephthalate membrane, FALCON cell culture insert (Becton-Dickinson)]. 4T1 mouse breast tumor cells or HUVECs were trypsinized and counted. 300 μl of 5-10×10^4 cells in serum-free medium was added to the upper chamber and 500 μl of medium with 10% fetal bovine serum (FBS) was added to the lower chamber. […] Cells on the inside of the transwell inserts were removed with a cotton swab, and cells on the underside of the insert were fixed and stained. Photographs of three random regions were taken and the number of cells was counted to calculate the average number of cells that have transmigrated.

HUVEC = experiment: Tube formation assay (preliminary, Table 1); format: cell-based, human; details: minimal concentration causing definite disturbance of tube network, 16-18 h, tested 200, 100, 50, 25, 10 μM
Protocol: 1. Tube Formation Assay (Table 1):
A protocol was designed based on the instructions from the provider (BD Bioscience, San Jose, Calif.). Briefly, wells of a 48 well culture dish were covert with 150 μL matrigel and the matrigel was gelatinized for 30 min at 37° C. A 80-90% confluent HUVEC (BD Bioscience, San Jose, Calif.) culture was trypsin treated, the detached cells were collected by centrifugation and resuspended in EGM-2 media (BD Bioscience, San Jose, Calif.). Cell concentration was adjusted to 100.000 cells/mL. 400 μL of the cell suspension were filled in the matrigel coated wells, and a solution of the inhibitor was added to the intended final concentration. The plates were incubated at 37° C. with 5% CO2 for 16-18 h. Media was removed, and the matrigel surface was washed twice with 500 μL PBS before cells were labeled with 250 μL 8 μM Calcein AM (Pierce, Rockford, Ill.) in PBS for 30 min at 37° C. After two additional washing steps (500 μL PBS) cells were visualized under an inverted microscope. Fluorescence was excited at 488 nm and recorded at 538 nm. The minimum effect concentration was defined as the minimal inhibitor concentration that caused a definite disturbance of the complexity of the formed tube network.

[3] = rcm bond, Grubbs-II, toluene, 111.0 °C, 0.25 h
[4] = Mouse plasma stability study (HPLC); format: in vitro ADME
Protocol: Mouse Plasma Stability Studies (Table 5): HPLC conditions: The sample is injected and separated using an Inertsil ODS3 6u 3×150 mm column with a mobile phase of MeCN and water (50% for migrastatin) at a flow of 0.4 mL/min, monitored at 220 nm at 0.02 AUFS (the retention time for migrastatin is ca. 4 min, the identity of this peak was confirmed by mass spectral analysis). Incubation and sample preparation conditions: A solution (ca. 30 mM) of chemical compound (Table 5) in DMSO is prepared. 2 μL of the solution is added to a mixture containing 200 μL of mouse plasma and 800 μL of PBS. The resulting solution is put into a water bath at 37° C., and 100 μL of sample is withdrawn at 10, 20, 30, 45, and 60 min. The precipitate is removed by centrifugation and 20 μL of the supernatant is injected onto the HPLC.

[5] = tested on: HUVECs (human umbilical vein endothelial cells); experiment: Boyden chamber cell migration assay with HUVECs; format: cell-based; details: chamber cell migration; average of three experiments; read-out: IC50 (HUVEC)
Protocol: Chamber Cell Migration Assay (Tables 4 and 6): Cell migrations were assayed with Boyden chambers [8.0 μm pore size, polyethylene terephthalate membrane, FALCON cell culture insert (Becton-Dickinson)]. 4T1 mouse breast tumor cells or HUVECs were trypsinized and counted. 300 μl of 5-10×10^4 cells in serum-free medium was added to the upper chamber and 500 μl of medium with 10% fetal bovine serum (FBS) was added to the lower chamber. The transwells were incubated for 6-8 h at 37° C. with different concentrations of chemical compound in both upper and lower chamber. Cells on the inside of the transwell inserts were removed with a cotton swab, and cells on the underside of the insert were fixed and stained. Photographs of three random regions were taken and the number of cells was counted to calculate the average number of cells that have transmigrated.

[6] = tested on: 4T1 tumor lung metastasis; experiment: 4T1 tumor lung metastasis in syngeneic mice (6-thioguanine clonogenic assay); format: in vivo, BALB/c mice; details: for lung metastasis colonies: lungs Day 28, mean and standard deviation
Description: Inhibition of metastasis of mouse breast tumors by migrastatin alogs in mice. 4T1 mouse breast tumor cell line was isolated from a single spontaneously arising mammary tumor from a BALB/BfC3H mouse (MMTV+).^62 The 4T1 tumor closely mimics human breast cancer in its anatomical site, immunogenecity, growth characteristics, and metastatic properties.^63 From the mammary gland, 4T1 tumor spontaneously metastasizes to a variety of target organs including the lung, bone, brain, and liver through primarily a hematogenous rout.^64
To assess the efficacy of therapeutic application of migrastatin analogs in the 4T1 murine mammary carcinoma models, we administered migrastatin analogs (macroketone and macrolactam) to BALB/c mice carrying the 4T1 tumors.
Female BALB/c mice (6-8 week old) were purchased from the Jackson Laboratory (Bar Harbor, Me.). All mice were housed at the Weill Medical College of Cornell University Animal Facilities in accordance with the Principles of Animal Care (NIH publication no. 85-23, revised 1985). 4T1 tumor cells (1×10^5) were injected subcutaneously into the abdominal mammary gland area of mice in 0.1 ml of a single-cell suspension in phosphate buffered saline (PBS) on Day 0. The dosage of tumor implantation was empirically determined to give rise to tumor of ˜10 mm in diameter in untreated wild type mice in 21-23 days. On Day 7, when the tumors averaged in size ˜4-5 mm in diameter, migrastatin analogs or control PBS saline were given every day by intraperitoneal injection at 10 mg/kg or 20 mg/kg per mouse until Day 25. On Day 28, the mice were sacrificed. This regiment of migrastatin analogs was well tolerated with no signs of overt toxicity. Every group included five mice. Primary tumors were measured using electronic calipers on the day when the mice were sacrificed. Tumor size was the square root of the product of two perpendicular diameters. Numbers of metastatic 4T1 cells in lung were determined by the clonogenic assay.^63 In brief, lungs were removed from each mouse on Day 28, finely minced and digested in 5 ml of enzyme cocktail containing 1× PBS and 1 mg/ml collagenase type IV for 2 hours at 37° C. on a platform rocker. After incubation, samples were filtered through 70 uM nylon cell strainers and washed twice with PBS. Resulting cells were suspended and plated serially diluted in 10 cm tissue culture dishes in medium RPMI1640 containing 60 uM thioguanine for clonogenic growth. 6-Thioguanine-resistant tumor cells formed foci after 14 days, at which time they were fixed with methanol and stained with 0.03% methylene blue for counting.
Treatment 4T1 tumor lung metaotmis in smgencie mice with Kigrastatin analogs (See, FIG. 4). 4T1 tumor cells (10^5) were injected s.c. in the abdominal mammary gland with 0.1 ml of a single-cell suspension. Macroketone or macrolactam at 10 mg/kg or 20 mg/kg was given i.p. on Day 7 when the tumor size was about 5 mm in diameter, and everyday until Day 25. On Day 28, the mice were sacrificed. Each group comprised five mice. Lung metastasis was measured by the 6-thiogunine clonogenic assay. The mean and standard deviation are presented. In the control group (daily PBS injection), there were 61300±18900 colonies.

IC50 [2]: 10000 nM
Molecule: COC1C=CCCCCC(=O)OC(C(C)C(=O)CCCC2CC(=O)NC(=O)C2)C(C)=CC(C)C1O (centres unmarked) [2,3-dihydromigrastatin (41), 2,3-Dihydromigrastatin]
Minimum effect concentration [1]: 25 µM
Minimum effect concentration (HUVEC): 50 µM

IC50 [2]: 101 nM
Molecule: CO[C@H]1/C=C/CCCCC(O)(C(F)(F)F)CC/C(C)=C\[C@@H](C)[C@@H]1O (some centres unmarked) [macrocyclic CF3-alcohol (71), Macrocyclic CF3-Alcohol]
effect on 4T1 tumor cell migration in the chamber assay, in words ([2]; chamber assay): displays the same activity profile as macroketone 60

IC50 [2]: 8900 nM
Molecule: CO[C@H]1/C=C/CCCCC(O)CC/C(C)=C\[C@@H](C)[C@@H]1O (some centres unmarked) [macrocyclic secondary alcohol (69), Macrocyclic Secondary Alcohol]

Molecule: CO[C@H]1C=CCC/C=C/C(=O)O[C@H]([C@H](C)C(=O)CCCC2CC(=O)NC(=O)C2)/C(C)=C\[C@@H](C)[C@@H]1O[Si](C)(C)C(C)(C)C
ring closure, yield of all isomers ([3]; from C=CCC/C=C/C(=O)O[C@@H](/C(C)=C\[C@@H](C)[C@H](O[Si](C)(C)C(C)(C)C)[C@H](C=C)OC)[C@H](C)C(=O)CCCC1CC(=O)NC(=O)C1, 0.46 mM): 69%

Molecule: CO[C@H]1C=CCCCCC(=O)NC/C(C)=C\[C@@H](C)[C@@H]1O[Si](C)(C)C(C)(C)C
ring closure, yield of all isomers ([3]; from C=CCCCCC(=O)NC/C(C)=C\[C@@H](C)[C@H](O[Si](C)(C)C(C)(C)C)[C@H](C=C)OC, 0.709 mM): 60%

Molecule: COC1C=CCCC=CC(=O)OCC(C)=CC(C)C1O (centres unmarked) [migrastatin core (45), Migrastatin Core]
stability (t1/2, mouse plasma) ([4]; mouse plasma/PBS, 37° C., sampled up to 60 min): 20 min
stability (mouse plasma), in words ([4]; stable = intensity of HPLC signal unchanged over 60 min of incubation): hydrolyzed rapidly
IC50 [5]: 0.15 µM

IC50 [2]: 255 nM
Molecule: COC1C=CCCCCC(=O)NCC(C)=CC(C)C1O (centres unmarked) [macrolactam (55), Macrolactam]
IC50 [5]: 18 µM
inhibition of lung metastasis ([6]; 10 mg/kg i.p. daily Day 7-25): ~91%
lung metastasis colonies ([6]; 10 mg/kg i.p. daily Day 7-25): 5333±1778 colonies
inhibition of lung metastasis ([6]; 20 mg/kg i.p. daily Day 7-25): ~91%
lung metastasis colonies ([6]; 20 mg/kg i.p. daily Day 7-25): 5675±6263 colonies

Molecule: CN1c2ccccc2C(=O)N2CCc3c([nH]c4ccccc34)[C@H]21 [evodiamine, reference compound]
IC50 ([2]; Mus musculus): 315 nM

IC50 [2]: 3100 nM
Molecule: CO[C@H]1/C=C/CCCCC(C)(O)CC/C(C)=C\[C@@H](C)[C@@H]1O (some centres unmarked) [macrocyclic tertiary alcohol (70), Marocyclic Tertiary Alcohol]

IC50 [2]: 7000 nM
Molecule: N-Methyl-2,3-Dihydromigrastatin [N-methyl-2,3-dihydromigrastatin (42)]

IC50 [2]: 2300 nM
Molecule: CO[C@H]1/C=C/CCCCC(=NO)CC/C(C)=C\[C@@H](C)[C@@H]1O [macrooxime (72), Macrooxime]

IC50 [2]: 192 nM
Molecule: CO[C@H]1/C=C/CCCCC(=O)OC/C(C)=C\[C@@H](C)[C@@H]1OC(C)=O [acetylated macrolactone (49), Acetylated Macrolactone]

IC50 [2]: 378 nM
Molecule: CO[C@@H](/C=C/CCCCC(=O)O)[C@@H](O)[C@H](C)/C=C(/C)CO [hydrolyzed core (51), Hydrolyzed Core]

Molecule: N-Methyl-migrastatin
Minimum effect concentration [1]: 100 µM
Minimum effect concentration (HUVEC): 200 µM

Molecule: CO[C@H]1C=CCCCCC(=O)O[C@H]([C@H](C)C(=O)CCCC2CC(=O)NC(=O)C2)/C(C)=C\[C@@H](C)[C@@H]1O[Si](C)(C)C(C)(C)C
ring closure, yield of all isomers ([3]; from C=CCCCCC(=O)O[C@@H](/C(C)=C\[C@@H](C)[C@H](O[Si](C)(C)C(C)(C)C)[C@H](C=C)OC)[C@H](C)C(=O)CCCC1CC(=O)NC(=O)C1, 0.48 mM): 79%
